The assay deals with NRG1-ERBB4 signaling. Nature of the assay: Nrg1-ERBB4-PIK3R1 split TEV co-culture compound screen of the NIH Clinical Collection. In kind it is cell-based, human.
Setting [1] is: compound screen of the NIH Clinical Collection, sheet raw data NCC-003, compounds ranked by Z-score.
[2] abbreviates: compounds at 10 μM, 24 h, PC12 split TEV assay cells co-cultured with Nrg1-expressing PC12 cells, analysed with cellHTS2.
Setting [3] is: NIH Clinical Collection NCC-003 raw data, compounds ranked by Z-score, 'flagged' given instead of a Z-score.

Where a name gives a salt, the structure may show the parent alone. Read-outs that look alike come from different tables or passages of the source.

The molecule `NC(=NCc1ccc(Cl)cc1)SCCCc1cnc[nH]1` [Clobenpropit] yielded a Z-SCORE under setting [1] of -0.9.
`CC(=O)OCC[N+](C)(C)C` [Miochol, reference compound] returned a Z-SCORE under setting [2] of 0.45.
On the same count and under the same terms, as for `C=CCN1CC[C@]23c4c5ccc(O)c4O[C@H]2C(=O)CC[C@@]3(O)[C@H]1C5` [NALOXONE HYDROCHLORIDE, reference compound], the figure is -0.39.
As for `CC=CC(=O)N(CC)c1ccccc1C` [483-63-6], under setting [1], the Z-SCORE was -0.8.
Regarding `Cc1onc(-c2c(Cl)cccc2Cl)c1C(=O)N[C@@H]1C(=O)N2[C@@H]1SC(C)(C)[C@@H]2C(=O)O` [DICLOXACILLIN SODIUM, reference compound], under setting [2], the Z-SCORE came out at 0.28.
For the molecule `CC1(C)S[C@@H]2[C@H](NC(=O)Cc3ccccc3)C(=O)N2[C@H]1C(=O)O` [Pfizerpen, reference compound], the Z-SCORE under setting [2] is -0.19.
In turn, `CCCCN1CCCC1CNC(=O)c1cc(C#N)c2ccccc2c1OC` (centres unmarked) [Nafadotride] gave a Z-SCORE under setting [1] of -0.24.
With `CC(CN1c2ccccc2Sc2ccccc21)N(C)C` (centres unmarked) [Phenergan, reference compound], the Z-SCORE under setting [2] is given as 0.41.
Same read-out and setting: for `C#C[C@]1(O)CC[C@H]2[C@@H]3CCC4=Cc5oncc5C[C@]4(C)[C@H]3CC[C@@]21C` [DANAZOL, reference compound] the value was -0.3.
In the case of `CNCC[C@H](Oc1cccc2ccccc12)c1cccs1` [DULOXETINE HCl], the Z-SCORE is reported as -0.22.
Under setting [1], `CS(=O)(=O)c1ccc(C2=C(c3ccccc3)C(=O)OC2)cc1` [ROFECOXIB] showed a Z-SCORE of 0.81.
The same measure, in the same setting: for `Cc1occc(=O)c1O` [118-71-8] the value was 0.13.
`CCCCC[C@H](O)/C=C/[C@H]1[C@H](O)CC(=O)[C@@H]1CCCCCCC(=O)O` [Prostaglandin E1] yielded a Z-SCORE under setting [1] of 0.18.
On the same count and under the same terms, as for `C[C@]12CCC(=O)C=C1CC[C@@H]1[C@@H]2C(=O)C[C@@]2(C)[C@H]1CC[C@]2(O)C(=O)CO` [CORTISONE], the figure is 0.26; as for `CNC(=C[N+](=O)[O-])NCCSCc1csc(CN(C)C)n1` [NIZATIDINE], -0.53.
On the same count and under the same terms, as for `CN(C)CC[C@@H](c1ccc(Br)cc1)c1ccccn1` [DEXBROMPHENIRAMINE MALEATE], the figure is -0.74; as for `CNCCCC12CCC(c3ccccc31)c1ccccc12.Cl` [Maprotilline HCl], 1.18.
As to `COc1ccnc(C[S+]([O-])c2nc3cc(OC(F)F)ccc3[n-]2)c1OC.[Na+]` (centres unmarked) [PANTOPRAZOLE SODIUM SALT], the Z-SCORE under setting [1] turned out to be 1.42.
Consider `CO/N=C(\C(=O)N[C@@H]1C(=O)N2C(C(=O)O)=C(COC(N)=O)CS[C@H]12)c1ccco1` [Cefuroxime, reference compound], for which, under setting [2], the Z-SCORE turned out to be 0.08.
Turning to `O=C(O)C(Cl)Cl` [DICHLOROACETIC ACID], the Z-SCORE under setting [1] was determined as 1.9.
Under setting [2], `COc1ccc([C@@H]2Sc3ccccc3N(CCN(C)C)C(=O)[C@@H]2OC(C)=O)cc1.Cl` (relative stereo) [(+)-CIS-DILTIAZEM HYDROCHLORIDE, reference compound] had a Z-SCORE of -0.13.
Same read-out and setting: for `O=C1CN(/N=C/c2ccc(-c3ccc([N+](=O)[O-])cc3)o2)C(=O)[N-]1.[Na+]` [Dantrolene sodium salt, reference compound] the value was 0.78.
On to `CCCCCCNC(=O)n1cc(F)c(=O)[nH]c1=O` [CARMOFUR], for which, under setting [3], the Z-SCORE is listed as -2.48.
The molecule `CCN1CCC[C@H]1CNC(=O)c1cc(S(N)(=O)=O)ccc1OC` [LEVOSULPIRIDE] registered a Z-SCORE under setting [1] of -0.53.
Still for that read-out and setting: as for `Cc1c(O)cccc1C(=O)N[C@@H](CSc1ccccc1)[C@H](O)CN1C[C@H]2CCCC[C@H]2C[C@H]1C(=O)NC(C)(C)C` [NELFINAVIR MESYLATE], the figure is 0.24; as for `COc1cc(C)c(Cc2cnc(N)nc2N)cc1OC` [ORMETOPRIM], 1.63; as for `C[N+]1(CCC(C(N)=O)(c2ccccc2)c2ccccc2)CCCCC1` [FENPIVERINIUM BROMIDE], -0.58.
On the same count and under the same terms, for `CC(=O)N1CCN(c2ccc(OCC3COC(Cn4ccnc4)(c4ccc(Cl)cc4Cl)O3)cc2)CC1` (centres unmarked) [Ketoconazole] the value was -1.1.
For `CCOC(=O)[C@H](CCc1ccccc1)N[C@@H](C)C(=O)N1[C@H](C(=O)O)C[C@@H]2CCC[C@@H]21` [reference compound], the Z-SCORE runs as follows: under setting [3], -1.41; under setting [2], 4.3.
`CC(C)c1cccc(C(C)C)c1O` [Propofol, reference compound] registered a Z-SCORE of -0.98.
`Cl.NC1CCN(c2cccc(Cl)n2)CC1` [SR 57,227A] registered a Z-SCORE under setting [1] of -0.24.
For `OCCOCCN1CCN(C2=Nc3ccccc3Sc3ccccc32)CC1` [QUETIAPINE HEMIFUMARATE], under setting [3], the Z-SCORE is reported as -1.26.
In the case of `C[C@]12C[C@H](O)[C@H]3[C@@H](CCC4=CC(=O)CC[C@@]43C)[C@@H]1CC[C@@H]2C(=O)CO` [CORTICOSTERONE], under setting [1], the Z-SCORE was found to be 0.4.
Take `Oc1cc(Cl)ccc1Oc1ccc(Cl)cc1Cl` [Triclosan, reference compound]: the Z-SCORE result under setting [2] is “flagged”.
Molecule `Cc1sc(N)c(C(=O)c2cccc(C(F)(F)F)c2)c1C` [PD 81723] registered a Z-SCORE under setting [1] of 0.13.
`C[C@]12CCC(=O)C=C1CC[C@@H]1[C@@H]2CC[C@@]2(C)[C@H]1CC[C@]2(O)C(=O)CO` [ReichsteinÂ’s substanceÂ S] showed a Z-SCORE under setting [3] of -1.82.
For the molecule `COc1cc(NC(C)CCCN)c2ncccc2c1` (centres unmarked) [Primaquine Diphosphate, reference compound], the Z-SCORE under setting [2] was -0.7.
In turn, `COc1ccccc1N1CCN(CCCNc2cc(=O)n(C)c(=O)n2C)CC1` [URAPIDIL HYDROCHLORIDE] came in with a Z-SCORE under setting [1] of 0.51.
Under setting [2], `NC12CC3CC(CC(C3)C1)C2` [Symmetrel, reference compound] returned a Z-SCORE of 0.15.
`CC(C)(C)NCC(O)c1cc(O)cc(O)c1` (centres unmarked) [Terbutaline Sulfate, reference compound]: the Z-SCORE under setting [2] stood at 0.15.
Molecule `CN1C(=O)CN=C(c2ccccc2)c2cc([N+](=O)[O-])ccc21` [Nimetazepam] showed a Z-SCORE under setting [1] of 0.16.
Under setting [1], `CC(Oc1c(Cl)cccc1Cl)C1=NCCN1` (centres unmarked) [LOFEXIDINE HCl] gave a Z-SCORE of -0.17.
Under setting [3], `CC(C)(O)c1ccccc1CC[C@@H](SCC1(CC(=O)[O-])CC1)c1cccc(/C=C/c2ccc3ccc(Cl)cc3n2)c1.[Na+]` [MONTELUKAST Na] gave a Z-SCORE of -1.21.
As to `Clc1ccc(COC(Cn2ccnc2)c2ccc(Cl)cc2Cl)cc1` (centres unmarked) [Econazole Nitrate, reference compound], the Z-SCORE under setting [2] is given as -2.43.
On to `Nc1nc2ccc(OC(F)(F)F)cc2s1` [Riluzole], for which the Z-SCORE under setting [1] is given as -0.53.
The same measure, in the same setting: as for `O=[N+]([O-])c1cccc2cn[nH]c12` [7-NITROINDAZOLE], the figure is 0.29; as for `O=C(O)COCCN1CCN([C@H](c2ccccc2)c2ccc(Cl)cc2)CC1` [LEVOCETIRIZINE], 0.15.
Still for that read-out and setting: as for `C[C@]12C=CC(=O)C=C1CC[C@@H]1[C@@H]2[C@@H](O)C[C@@]2(C)[C@H]1CC[C@]2(O)C(=O)COC(=O)CCC(=O)[O-].[Na+]`, the figure is 0.67.
In turn, `O=c1[nH]cc(F)c(=O)[nH]1` [5-FLUOROURACIL, reference compound] came in with a Z-SCORE under setting [2] of -1.82.
On the same count and under the same terms, as for `N[C@@H](Cc1cc(I)c(Oc2cc(I)c(O)c(I)c2)c(I)c1)C(=O)O` [L-THYROXINE, reference compound], the figure is -0.07; as for `N[C@H](Cc1cc(I)c(Oc2ccc(O)c(I)c2)c(I)c1)C(=O)O` [NSC46046, reference compound], -1.87.
Molecule `COc1cc2nc(N(C)CCCNC(=O)C3CCCO3)nc(N)c2cc1OC` (centres unmarked) [ALFUZOSIN] registered a Z-SCORE under setting [1] of 0.03.
Molecule `Clc1ccc(CO/N=C(\Cn2ccnc2)c2ccc(Cl)cc2Cl)c(Cl)c1` [OXICONAZOLE NITRATE] registered a Z-SCORE under setting [3] of -1.71.
`CCOC(=O)OC(C)OC1=C(C(=O)Nc2ccccn2)N(C)S(=O)(=O)c2ccccc21` (centres unmarked) [AMPIROXICAM]: the Z-SCORE under setting [1] was 0.43.
On the same count and under the same terms, for `CC(O)CO.N[C@@H](C(=O)N[C@@H]1C(=O)N2C(C(=O)O)=C(CSc3cn[nH]n3)CS[C@H]12)c1ccc(O)cc1` [CEFATRIZINE PROPYLENE GLYCOL] the value was 0.04.
In turn, `Cc1c(OCC(F)(F)F)ccnc1C[S+]([O-])c1nc2ccccc2[nH]1` (centres unmarked) [LANSOPRAZOLE] registered a Z-SCORE under setting [3] of -1.16.
For `CCOC(=O)c1ncn2c1CN(C)C(=O)c1cc(F)ccc1-2` [FLUMAZENIL], the Z-SCORE under setting [1] worked out at 0.09.
With `O=C1c2c(O)cc(O)cc2OC(c2ccc(O)c(O)c2)C1O` (racemic) [TAXIFOLIN-(+/-)], under setting [1], the Z-SCORE is on record as -0.12.
As for `CC(=O)OCC(=O)NCCCOc1cccc(CN2CCCCC2)c1` [ROXATIDINE ACETATE HCl], the Z-SCORE under setting [1] was -0.59.
For the molecule `Nc1ncnc2c1ncn2[C@@H]1O[C@H](CO)[C@@H](O)[C@@H]1O` [Adenine 9-beta, reference compound], under setting [2], the Z-SCORE came to 1.63.
In turn, `CC(C)[C@H](N)C(=O)OCCOCn1cnc2c(=O)[nH]c(N)nc21` [VALACICLOVIR HYDROCHLORIDE] gave a Z-SCORE under setting [1] of 0.49.
The molecule `O=C1N(c2ccccc2)c2ccccc2C1(Cc1ccncc1)Cc1ccncc1` showed a Z-SCORE under setting [1] of -0.78.
Molecule `Cl.Nc1c2c(nc3c1CCC3)CCCC2` displayed a Z-SCORE under setting [1] of -0.08.
Turning to `CC(C(=O)O)c1ccc(-c2ccccc2)c(F)c1` (centres unmarked) [Flurbiprofen, reference compound], the Z-SCORE runs as follows: under setting [3], -1.64; under setting [2], 0.7.
Molecule `C=C(CC)C(=O)c1ccc(OCC(=O)O)c(Cl)c1Cl` [ETHACRYNIC ACID, reference compound] came in with a Z-SCORE under setting [2] of -1.25.
The molecule `Cc1nnc2n1-c1ccc(Cl)cc1C(c1ccccc1)=NC2` [Alprazolam] came in with a Z-SCORE under setting [3] of -2.27.
`O=C(O[C@@H]1Cc2c(O)cc(O)cc2O[C@@H]1c1cc(O)c(O)c(O)c1)c1cc(O)c(O)c(O)c1` [Epigallocatechin gallate] yielded a Z-SCORE under setting [1] of 1.36.
The same measure, in the same setting: for `CN(C)CCN(Cc1ccccc1)c1ccccn1` [TRIPELENNAMINE HYDROCHLORIDE] the value was 0.58; for `CCN(CC)CC(=O)Nc1c(C)cccc1C` [LIDOCAINE], 1.02.

These data come from paper PMC5653977 (EMBO Molecular Medicine, 2017).
